In patent US20230235374A1, “High Throughput Assays for Detecting Translation Readthrough Inducers” (The Trustees of the University of Pennsylvania, priority 2021, published 2023):
Where two headings read alike, the source gives them in different places. Each block holds one molecule with its values, some of them ahead of it.

What was measured:
[1] = system: Stop-POST5 complex (RFC-dependent termination); assay: smTIRF assay of RFC-dependent peptide and tRNA release; format: biochemical, shrimp (Artemia salina)
Experimental: Immobilization of ribosome Stop-POST 5 complexes. PEGylated flow chambers were incubated in 0.5 mg/ml streptavidin for 5 mins and washed with Buffer 4. Biotinylated Stop-POST5 containing FK(atto647)VRQ-tRNA^Gln (Cy3) in the P-site, was formed at room temperature by incubating Stop-POST4, eEF1A, GTP, and Gln-(Cy3)tRNA^Gln for 5 mins and then injected into the streptavidin-coated slide chamber. After a 5 min incubation, excess unbound ribosome was flowed out. Then eRF1/eRF3±TRIDs was injected dynamically at 3 sec while recording. The injection dead time was subtracted for each particle.
Single-molecule fluorescence imaging. All sm-TIRF studies were carried out at 24° C. All dilutions, complex formation, and single-molecule imaging were carried out in Buffer 4 with an added enzymatic oxygen scavenging system of 2 mM protocatechuic acid (PCA), 50 nM protocatechunate 3,4 dioxygenase (PCD, Sigma Aldrich), 1 mM cyclooctatetraene (COT, Sigma Aldrich), 1 mM 4-nitrobenzyl alcohol (NBA, Sigma Aldrich), and 1.5 mM 6-hydroxy-2,5,7,8-tetramethyl-chromane-2-carboxylic acid (Trolox, Sigma-Aldrich) (Flis et al., Cell reports, 25(10), 2676-2688 (2018).
Image stacks were recorded at 100 ms frame rate on a custom-built objective-type total internal reflection fluorescence (TIRF) microscope based on a commercial inverted microscope (Eclipse Ti-E, Nikon) and capable of performing alternating-laser excitation (ALEX) between 532 nm and 640 nm laser beams using an acousto-optic tunable filter (AOTF, Chen et al., 2011). For the time-lapse experiment, timing of the movies, programmed into NIS-Elements (Nikon) microscope software, were recorded by illuminating the sample for 50-20 frames at 10 frames per s with 15 s or […] intervening dark intervals. Video recording was started and then eRF1/eRF3±TRIDs was injected from a triggered syringe pump at 3 sec while recording. The injection dead time was subtracted for each particle. Triggering of the shutters, AOTF, and pump was synchronized using LabView scripts driven from the camera exposure signal.
Data analysis. Collected movies were analyzed by a custom-made software program developed as an ImageJ plugin (Chen et al., Mol. Cell, 42, 367-377 (2011)), and further analyzed using Python. Distributions of peptide and tRNA dissociation times were fit to eq (5), using maximum likelihood estimation (Bevington and Robinson. Data Reduction and Error Analysis for the Physical Sciences. New York: McGraw-Hill, (2002); Woody et al., Biophys. J. 111, 273-282 (2016)), where P is the probability density.
smTIRF results using Atto(pep)-Cy-Stop-POST5 attached to surface-immobilized ribosomes. Although the distance between the two fluorophores is not close enough to produce FRET, fluorescent pairs could be identified by co-localization on the slide under alternating 532 nm and 640 nm total internal reflection fluorescence (TIRF) illumination. This permits near-simultaneous monitoring of the dynamics of peptide and P-site tRNA release from the Stop-POST5 complex following RFC binding.
To reduce photobleaching of each fluorophore, time-lapse movies were recorded with bursts of 20 or 50 frames at 100 ms frame intervals interleaved by 20 s intervals with the lasers shuttered. Total recording time for each trial was 20 min.
FIG. 8A and FIG. 8C show typical frame by frame recordings indicating a loss of signal for both labeled peptide and labeled tRNA after the addition of the RFC to Atto(pep)-Cy(tRNA)-Stop-POST5. Either peptide (a) or tRNA (b) can dissociate first, in approximately equal proportions. Photobleaching of Cy3-labeled tRNA and Atto647-labeled peptide in the absence of eRF1/eRF3 was much slower (FIG. 8E and FIG. 8F). Under the time lapse illumination employed, mean lifetimes for Atto647-peptide and Cy3-tRNA at 0.32 μM eRF1 and 2 μM eRF3 were each 2.45 min. […]

[2] = system: Atto(pep)-Stop-POST5 (RFC-dependent termination); assay: Plate reader fluorescence anisotropy assay of pentapeptide release; format: biochemical, shrimp (Artemia salina); details: absence of ataluren
Experimental: Plate reader assays were run in a Tecan F200® 96-well plate reader (Greiner® black, non-binding, chimney flat) equipped with 640 nm excitation and 700 nm polarization filters using 96-well plates. Atto(pep)-Stop-POST5 in Buffer 4 (0.1 μM, 80 μl) containing GTP (1 mM) was added to plate wells±ataluren at 25° C. eRF1 and eRF3 aliquots stored at −80° C. were thawed for 15 s at 37° C. and added directly to a premade ice-cold GTP (1 mM)±ataluren solution in Buffer 4. The resulting release factor solution was incubated at 25° C. for 1 min, and then added quickly in 80 μL portions to the Atto(pep)-Stop-POST5 containing wells with a multichannel pipette to the Atto(pep)-Stop-Posts wells. The final concentrations were: eRF1, 0.025-0.4 μM; eRF3, 0.8 μM; Atto(pep)-Stop-Posts, 0.05 μM. Fluorescence anisotropy decay graphs were fit with GraphPad Prism, using the one phase decay model to obtain peptide dissociation rates.
Ensemble fluorescence anisotropy results using Atto(pep)-Stop-POST5. The fluorescence anisotropy of the pentapeptidyl moiety of Atto(pep)-Stop-POST5 was quite high (0.22), and decreased following addition of RFC, providing a convenient measure of the rate of pentapeptide release from the ribosome. […] Each such time dependency could be fit to a single exponential, giving the collected rate constants presented in FIG. 9G, in which the rate dependence as a function of RFC concentration was measured at 0, 200, 500, and 1,000 μM ataluren. In the absence of ataluren, EC50 (0.029±0.002 μM) and Vmax (0.31±0.02) values were obtained for pentapeptide release similar to those measured by smTIRF. In addition, as with the smTIRF results, Vmax values were unaffected by added ataluren but EC50 values increased, reaching ˜0.06 μM at 1000 μM.

[3] = system: Stop-POST5 complex (RFC-dependent termination); assay: smTIRF assay of RFC-dependent peptide and tRNA release; format: biochemical, shrimp (Artemia salina); details: saturating RFC (0.65 μM eRF1, 1.3 μM eRF3)
Trp-PRE6 complex = assay: smFRET translocation of Trp-PRE6 to Trp-POST6; format: biochemical; details: 23° C.
Source text: Changes in FRET (FIGS. 16E-16G) were used to determine the rate of translocation (FIG. 16H) and the residence time of deacylated tRNA dissociation from the E-site (FIG. 16I) as functions of [eEF2.GTP].

[4] = 0.32 μM eRF1 and 2 μM eRF3, time lapse illumination
[5] = absence of ataluren, Michaelis-Menten fit

- EC50 ([1]; absence of ataluren, read-out: EC50, peptide dissociation): ~20 nM
- EC50 ([1]; absence of ataluren, read-out: EC50, tRNA dissociation): ~20 nM
- EC50 [2]: 29 ± 2 nM
Molecule: RFC: release factor complex of eRF1 and eRF3 with GTP catalysing termination
- mean lifetime, Atto647-peptide [1, 4]: 2.45 min
- mean lifetime, Cy3-tRNA [1, 4]: 2.45 min
- peptide release rate constants, As 2nd product ([1]; [RFC] 0.016 μM): 0.12 ± 0.03 min⁻¹
- peptide release rate constants, Overall ([1]; [RFC] 0.016 μM): 0.13 ± 0.02 min⁻¹
- tRNA release rate constants, As 2nd product ([1]; [RFC] 0.016 μM): 0.086 ± 0.023 min⁻¹
- tRNA release rate constants, Overall ([1]; [RFC] 0.016 μM): 0.10 ± 0.02 min⁻¹
- peptide release rate constants, As 2nd product ([1]; [RFC] 0.032 μM): 0.15 ± 0.02 min⁻¹
- peptide release rate constants, Overall ([1]; [RFC] 0.032 μM): 0.16 ± 0.02 min⁻¹
- tRNA release rate constants, As 2nd product ([1]; [RFC] 0.032 μM): 0.063 ± 0.021 min⁻¹
- tRNA release rate constants, Overall ([1]; [RFC] 0.032 μM): 0.12 ± 0.02 min⁻¹
- peptide release rate constants, As 2nd product ([1]; [RFC] 0.080 μM): 0.15 ± 0.02 min⁻¹
- peptide release rate constants, Overall ([1]; [RFC] 0.080 μM): 0.21 ± 0.02 min⁻¹
- tRNA release rate constants, As 2nd product ([1]; [RFC] 0.080 μM): 0.12 ± 0.02 min⁻¹
- tRNA release rate constants, Overall ([1]; [RFC] 0.080 μM): 0.17 ± 0.03 min⁻¹
- peptide release rate constants, As 2nd product ([1]; [RFC] 0.166 μM): 0.19 ± 0.02 min⁻¹
- peptide release rate constants, Overall ([1]; [RFC] 0.166 μM): 0.24 ± 0.01 min⁻¹
- tRNA release rate constants, As 2nd product ([1]; [RFC] 0.166 μM): 0.14 ± 0.03 min⁻¹
- tRNA release rate constants, Overall ([1]; [RFC] 0.166 μM): 0.18 ± 0.02 min⁻¹
- peptide release rate constants, As 2nd product ([1]; [RFC] 0.32 μM): 0.24 ± 0.03 min⁻¹
- peptide release rate constants, Overall ([1]; [RFC] 0.32 μM): 0.26 ± 0.02 min⁻¹
- tRNA release rate constants, As 2nd product ([1]; [RFC] 0.32 μM): 0.17 ± 0.03 min⁻¹
- tRNA release rate constants, Overall ([1]; [RFC] 0.32 μM): 0.20 ± 0.02 min⁻¹
- peptide release rate constants, As 2nd product ([1]; [RFC] 0.65 μM): 0.23 ± 0.04 min⁻¹
- peptide release rate constants, Overall ([1]; [RFC] 0.65 μM): 0.27 ± 0.03 min⁻¹
- tRNA release rate constants, As 2nd product ([1]; [RFC] 0.65 μM): 0.23 ± 0.04 min⁻¹
- tRNA release rate constants, Overall ([1]; [RFC] 0.65 μM): 0.21 ± 0.03 min⁻¹
- peptide release rate constants, As 2nd product ([1]; [RFC] 1.61 μM): 0.25 ± 0.03 min⁻¹
- peptide release rate constants, Overall ([1]; [RFC] 1.61 μM): 0.26 ± 0.02 min⁻¹
- tRNA release rate constants, As 2nd product ([1]; [RFC] 1.61 μM): 0.15 ± 0.02 min⁻¹
- tRNA release rate constants, Overall ([1]; [RFC] 1.61 μM): 0.20 ± 0.02 min⁻¹
- Vmax, peptide dissociation [1, 5]: ~0.27 ± 0.02 min⁻¹
- Vmax, tRNA dissociation [1, 5]: 0.20 ± 0.02 min⁻¹
- Vmax, pentapeptide release [2]: 0.31±0.02
- rate constant, Atto(pep)-Cy(rbsm)-Stop-POST5 [3]: 0.26 ± 0.03 min⁻¹
- rate constant, Atto(rbsm)-Cy(tRNA)-Stop-POST5 [3]: 0.20 ± 0.03 min⁻¹

B1: eEF2: yeast eukaryotic elongation factor 2 (protein, UniProt P32324 1-842, looked up)
Elongation factor 2: MVAFTVDQMRSLMDKVTNVRNMSVIAHVDHGKSTLTDSLVQRAGIISAAKAGEARFTDTRKDEQERGITIKSTAISLYSEMSDEDVKEIKQKTDGNSFLINLIDSPGHVDFSSEVTAALRVTDGALVVVDTIEGVCVQTETVLRQALGERIKPVVVINKVDRALLELQVSKEDLYQTFARTVESVNVIVSTYADEVLGDVQVYPARGTVAFGSGLHGWAFTIRQFATRYAKKFGVDKAKMMDRLWGDSFFNPKTKKWTNKDTDAEGKPLERAFNMFILDPIFRLFTAIMNFKKDEIPVLLEKLEIVLKGDEKDLEGKALLKVVMRKFLPAADALLEMIVLHLPSPVTAQAYRAEQLYEGPADDANCIAIKNCDPKADLMLYVSKMVPTSDKGRFYAFGRVFAGTVKSGQKVRIQGPNYVPGKKDDLFIKAIQRVVLMMGRFVEPIDDCPAGNIIGLVGIDQFLLKTGTLTTSETAHNMKVMKFSVSPVVQVAVEVKNANDLPKLVEGLKRLSKSDPCVLTYMSESGEHIVAGTGELHLEICLQDLEHDHAGVPLKISPPVVAYRETVESESSQTALSKSPNKHNRIYLKAEPIDEEVSLAIENGIINPRDDFKARARIMADDYGWDVTDARKIWCFGPDGNGPNLVIDQTKAVQYLHEIKDSVVAAFQWATKEGPIFGEEMRSVRVNILDVTLHADAIHRGGGQIIPTMRRATYAGFLLADPKIQEPVFLVEIQCPEQAVGGIYSVLNKKRGQVVSEEQRPGTPLFTVKAYLPVNESFGFTGELRQATGGQAFPQMVFDHWSTLGSDPLDPTSKAGEIVLAARKRHGMKEEVPGWQEYYDKL
- kcat, translocation (Trp-PRE6 complex): 1.0 s⁻¹
- Km (Trp-PRE6 complex; read-out: Km^eEF2, translocation): 0.28 µM
